Results taken from PubChem BioAssay AID248 (DTP/NCI, 2004).
Values joined by “and” are separate entries in the source; they are usually repeats but may differ in a detail not shown here. Equal entries are not always repeated. Toxic doses and inconclusive results are not listed. Cut-off read from the data, not from the text of the source: active = T/C of 150% or more; inactive = T/C below 125%.

Test system: L1210 leukemia ip in BDF1 mice, survival T/C
Test: NCI In Vivo Anticancer Drug Screen. Data for tumor model L1210 Leukemia (intraperitoneal) in B6D2F1 (BDF1) mice
Details: endpoint: mean survival time, higher = longer survival
Procedure, shortened: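 Mice bearing the transplanted tumor received compound or vehicle. Survival of the treated group was divided by that of the vehicle-treated control group to give the ratio.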

[1] = dose: 100.0 mg/kg/injection, schedule: Q01DX001 (ip), vehicle: saline
[2] = dose: 200.0 mg/kg/injection, schedule: Q01DX001 (ip), vehicle: saline
[3] = dose: 25.0 mg/kg/injection, schedule: Q04DX002 (ip), vehicle: saline
[4] = dose: 25.0 mg/kg/injection, schedule: Q04DX003 (ip), vehicle: saline
[5] = dose: 50.0 mg/kg/injection, schedule: Q01DX001 (ip), vehicle: saline
[6] = dose: 50.0 mg/kg/injection, schedule: Q04DX002 (ip), vehicle: saline
[7] = dose: 50.0 mg/kg/injection, schedule: Q04DX003 (ip), vehicle: saline
[8] = dose: 100.0 mg/kg/injection, schedule: Q04DX003 (ip), vehicle: saline
[9] = dose: 50.0 mg/kg/injection, schedule: Q01DX009 (ip), vehicle: saline with Tween-80
[10] = dose: 100.0 mg/kg/injection, schedule: Q01DX009 (ip), vehicle: saline with Tween-80
[11] = dose: 100.0 mg/kg/injection, schedule: Q04DX003 (ip), vehicle: saline with Tween-80
[12] = dose: 200.0 mg/kg/injection, schedule: Q04DX003 (ip), vehicle: saline with Tween-80
[13] = dose: 25.0 mg/kg/injection, schedule: Q04DX002 (ip), vehicle: saline with Tween-80
[14] = dose: 100.0 mg/kg/injection, schedule: Q01DX001 (ip), vehicle: carboxymethylcellulose (CMC)
[15] = dose: 200.0 mg/kg/injection, schedule: Q01DX001 (ip), vehicle: carboxymethylcellulose (CMC)
[16] = dose: 400.0 mg/kg/injection, schedule: Q01DX001 (ip), vehicle: carboxymethylcellulose (CMC)
[17] = dose: 400.0 mg/kg/injection, schedule: Q01DX001 (ip), vehicle: saline
[18] = dose: 200.0 mg/kg/injection, schedule: Q01DX009 (ip), vehicle: saline with Tween-80
[19] = dose: 200.0 mg/kg/injection, schedule: Q01DX009 (ip), vehicle: Klucel (hydroxypropylcellulose) (HPC)
[20] = dose: 400.0 mg/kg/injection, schedule: Q01DX009 (ip), vehicle: Klucel (hydroxypropylcellulose) (HPC)

Measured: T/C

Nc1ccc(NS(=O)(=O)Cc2ccccc2)cc1
inactive: dose: 100.0 mg/kg/injection, schedule: Q01DX001 (ip), vehicle: saline with Tween-80 98 % of control | dose: 200.0 mg/kg/injection, schedule: Q01DX001 (ip), vehicle: saline with Tween-80 96 % of control | dose: 400.0 mg/kg/injection, schedule: Q01DX001 (ip), vehicle: saline with Tween-80 107 % of control

Nc1ccccc1C(O)c1ccccc1 (configuration not stated)
inactive: [1] 104 % of control | [2] 106 % of control

NC(CCl)=NCc1ccccc1
inactive: dose: 6.25 mg/kg/injection, schedule: Q01DX009 (ip), vehicle: saline 97 % of control and 98 % of control | dose: 12.5 mg/kg/injection, schedule: Q01DX009 (ip), vehicle: saline 101 % of control and 115 % of control | dose: 25.0 mg/kg/injection, schedule: Q01DX001 (ip), vehicle: saline 98 % of control | [3] 105 % of control and 91 % of control | [4] 90 % of control | [5] 97 % of control | [6] 94 % of control and 89 % of control | [7] 97 % of control | [8] 95 % of control

CCOc1ccn(CC(=O)c2ccc([N+](=O)[O-])o2)c(=O)n1
inactive: [9] 96 % of control | [10] 94 % of control | [11] 98 % of control | [12] 91 % of control

O=C/C(=C\C=C\c1ccc([N+](=O)[O-])cc1)c1ccccc1
inactive: dose: 75.0 mg/kg/injection, schedule: Q01DX001 (ip), vehicle: Klucel (hydroxypropylcellulose) (HPC) 86 % of control | dose: 150.0 mg/kg/injection, schedule: Q01DX001 (ip), vehicle: Klucel (hydroxypropylcellulose) (HPC) 88 % of control | dose: 300.0 mg/kg/injection, schedule: Q01DX001 (ip), vehicle: Klucel (hydroxypropylcellulose) (HPC) 89 % of control

CNC1CCCc2ccccc2C1O (configuration not stated)
inactive: [1] 102 % of control

O=c1[nH]c(-c2ccccc2N=NN2CCCCC2)nc2ccccc12
inactive: [13] 100 % of control | dose: 50.0 mg/kg/injection, schedule: Q04DX002 (ip), vehicle: saline with Tween-80 103 % of control | dose: 200.0 mg/kg/injection, schedule: Q04DX002 (ip), vehicle: saline with Tween-80 103 % of control | dose: 400.0 mg/kg/injection, schedule: Q04DX002 (ip), vehicle: saline with Tween-80 88 % of control

CC(=O)O/C=C\c1ccccc1
inactive: dose: 50.0 mg/kg/injection, schedule: Q01DX001 (ip), vehicle: carboxymethylcellulose (CMC) 104 % of control | [14] 98 % of control | [15] 107 % of control | [16] 98 % of control

CCS(=O)(=O)c1ccc(NC(=O)OCc2ccccc2)cc1
inactive: [14] 94 % of control | [15] 94 % of control | [16] 92 % of control

O=C(CCCC(=O)N/N=C/c1ccc(Cl)c(Cl)c1)N/N=C\c1ccc(Cl)c(Cl)c1
inactive: [5] 116 % of control | [1] 110 % of control | [2] 118 % of control | [17] 100 % of control

Cc1ccc(C(=O)CCCCCCCCC(=O)c2ccc(C)cc2)cc1
inactive: [9] 97 % of control | [10] 89 % of control | [18] 89 % of control

NC(N)=NC(N)=Nc1ccc(N=C(N)N=C(N)N)cc1
inactive: dose: 100.0 mg/kg/injection, schedule: Q01DX001 (ip), vehicle: other 104 % of control

Clc1ccc(N=Cc2ccc3c(c2)OCO3)c(Cl)c1
inactive: dose: 100.0 mg/kg/injection, schedule: Q01DX009 (ip), vehicle: Klucel (hydroxypropylcellulose) (HPC) 94 % of control | [19] 93 % of control | [20] 96 % of control

COC(=O)CC(c1ccc(Cl)cc1)N1CCCCC1 (configuration not stated)
inactive: [1] 98 % of control | [2] 102 % of control | [17] 96 % of control

CC(=O)OC(Cc1nc2ccccc2s1)(C(F)(F)F)C(F)(F)F
inactive: dose: 3.13 mg/kg/injection, schedule: Q04DX002 (ip), vehicle: saline with Tween-80 97 % of control | dose: 6.25 mg/kg/injection, schedule: Q04DX002 (ip), vehicle: saline with Tween-80 91 % of control | dose: 12.5 mg/kg/injection, schedule: Q04DX002 (ip), vehicle: saline with Tween-80 97 % of control | [13] 94 % of control

NC(Cc1ccc(O)cc1)C(=O)CCl (configuration not stated)
inactive: [3] 110 % of control | [6] 105 % of control

Cc1c([N+](=O)[O-])cc(C(=O)c2ccccc2C(=O)O)cc1[N+](=O)[O-]
inactive: dose: 75.0 mg/kg/injection, schedule: Q04DX003 (ip), vehicle: Klucel (hydroxypropylcellulose) (HPC) 98 % of control | dose: 150.0 mg/kg/injection, schedule: Q04DX003 (ip), vehicle: Klucel (hydroxypropylcellulose) (HPC) 91 % of control | dose: 300.0 mg/kg/injection, schedule: Q04DX003 (ip), vehicle: Klucel (hydroxypropylcellulose) (HPC) 91 % of control

c1ccc([Si](c2ccccc2)(c2ccccc2)c2ccc([Si](c3ccccc3)(c3ccccc3)c3ccccc3)cc2)cc1
inactive: [10] 95 % of control | [11] 103 % of control | [18] 92 % of control | [12] 90 % of control | dose: 400.0 mg/kg/injection, schedule: Q01DX009 (ip), vehicle: saline with Tween-80 90 % of control | dose: 400.0 mg/kg/injection, schedule: Q04DX003 (ip), vehicle: saline with Tween-80 106 % of control

COc1ccccc1/C=N/N=C(/N)N[N+](=O)[O-]
inactive: dose: 100.0 mg/kg/injection, schedule: Q01DX001 (ip), vehicle: Klucel (hydroxypropylcellulose) (HPC) 102 % of control | dose: 200.0 mg/kg/injection, schedule: Q01DX001 (ip), vehicle: Klucel (hydroxypropylcellulose) (HPC) 101 % of control | dose: 400.0 mg/kg/injection, schedule: Q01DX001 (ip), vehicle: Klucel (hydroxypropylcellulose) (HPC) 98 % of control

COc1ccccc1NC(=O)Nc1c(C)cc(C)cc1C
inactive: dose: 100.0 mg/kg/injection, schedule: Q04DX003 (ip), vehicle: Klucel (hydroxypropylcellulose) (HPC) 95 % of control | [19] 90 % of control | dose: 200.0 mg/kg/injection, schedule: Q04DX003 (ip), vehicle: Klucel (hydroxypropylcellulose) (HPC) 88 % of control | [20] 95 % of control | dose: 400.0 mg/kg/injection, schedule: Q04DX003 (ip), vehicle: Klucel (hydroxypropylcellulose) (HPC) 91 % of control

CCN(CC)Cc1nc2nc(Cl)c(Cl)nc2[nH]1
inactive: dose: 25.0 mg/kg/injection, schedule: Q01DX009 (ip), vehicle: saline with Tween-80 97 % of control | [9] 105 % of control | [11] 99 % of control

O=C1C2C(C(=O)N1c1ccc(O)cc1)C1c3ccccc3C2C2CCCCN21 (configuration not stated)
inactive: dose: 12.5 mg/kg/injection, schedule: Q04DX003 (ip), vehicle: saline 102 % of control | [4] 103 % of control | [7] 102 % of control | [8] 100 % of control
